Measured values reported in patent publication US20130231305A1, “Method of Modulating Protein 14-3-3 Functionality By Facilitating or Inhibiting Phosphorylation” (Medvet Science Pty. Ltd., priority 2010, published 2013).
Where a chain is given by its changes, count along the chain named. Entries after “also recorded” stand apart in the source; their conditions may differ.

Key:
14-3-3 isoforms = assay: Phosphorylation of recombinant 14-3-3 isoforms by PKA catalytic subunit; assay type: biochemical; details: 50 μM in 0.1% ethanol
Procedure: FIG. 3 is an image depicting that sphingosine is required for the phosphorylation of multiple 14-3-3 isoforms in the third helix. (A) Primary sequence alignment of 14-3-3 isoforms in the third helix showing conservation of a Ser phosphorylation site (shown in bold). Asterisks indicate identical amino acids. (B) Recombinant 14-3-3 isoforms were incubated with PKA catalytic subunit in the presence of 50 μM sphingosine, dimethyl-sphingosine (DMS) or FTY 720 (FTY) delivered in 0.1% ethanol (EtOH). Phosphorylated 14-3-3s were detected by autoradiography. Gels were coomassie stained to show equal loading of 14-3-3 substrate.
(§1) Substrate 14-3-3 (either 0.5 μg of purified recombinant 14-3-3, a […] of fractions from gel filtration or immunoprecipitates from 14-3-3ζ-Myc transfected COS cells) were added to reaction mixture comprising 0.2 Units of the PKA catalytic subunit, in the presences or absence of sphingolipid (delivered in 0.1% v/v ethanol) in PICA reaction buffer (20 mM MOPS, pH 7.4, 20 mM β-glycerol phosphate, 4 mM EGTA, 1 mM Na3VO4, 60 mM MgCl2, 1 mM DTT, 500 μM ATP, 2.4 μCi [^32P]γ-ATP). Reactions were incubated at 37° C. for 15 minutes. After incubation, reactions were separated on 12.5% SDS-PAGE, coomassie stained and 14-3-3 phosphorylation analysed by autoradiography.

14-3-3ζ [1] = biological target: T1, 14-3-3ζ (Homo sapiens, UniProt P63104); assay: 14-3-3 phosphorylation by PKA catalytic subunit (autoradiography); assay type: biochemical; details: 50 μM lipid delivered in 0.1% ethanol
T1 construct: made in house
T1 sequence (P63104 1-245): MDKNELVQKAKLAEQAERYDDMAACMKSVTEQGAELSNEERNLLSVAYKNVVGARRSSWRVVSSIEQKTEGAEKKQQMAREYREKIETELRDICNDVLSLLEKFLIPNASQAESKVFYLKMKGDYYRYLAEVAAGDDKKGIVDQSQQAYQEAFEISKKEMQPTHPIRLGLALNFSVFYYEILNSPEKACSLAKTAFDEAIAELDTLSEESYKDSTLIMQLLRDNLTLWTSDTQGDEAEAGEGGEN
Procedure: 14-3-3ζ (wild-type or S58A mutant) was incubated with the catalytic subunit of PKA in the presence (+) or absence (−) of 50 μM sphingosine (A) or DMS (B) delivered in 0.1% ethanol. Phosphorylated 14-3-3ζ was detected by autoradiography.
The assay was carried out by incubating 14-3-g (0.5 μg) with catalytic subunit of PKA (0.2 Units) with the indicated concentration of DMS delivered in 0.1% ethanol. Reactions were separated on SDS-PAGE and phosphorylated protein detected by autoradiography. […] (B) 14-3-3ζ was incubated with the catalytic subunit of PKA and 50 μM D-erythro-sphingosine (Sph), D-erythro-trimethyl-sphingosine (TMS), D-erythro-dihydro-sphingosine (DHS), phyto-sphingosine (PSph), D-erythro-sphingosine-1-phosphate (SIP), C2-ceramide (C2-Cer), sphingomyelin (SM), spermine (Sper) or linoleic acid (LA), all delivered in 0.1% ethanol. Phosphorylated 14-3-3ζ was detected by autoradiography.
as §1

14-3-3ζ [2] = biological target: T1, 14-3-3ζ; assay: 14-3-3 phosphorylation by PKCδCat-HA immunoprecipitates; assay type: biochemical; details: recombinant 14-3-3ζ, FIG. 5B
Procedure: FIG. 5 is an image depicting that DMS is required for phosphorylation of 14-3-3ζ by PKCδCat but not for activation of the kinase. COS cells were transfected with either an empty expression construct (Mock) or one encoding a HA-tagged truncated form of PKCδ corresponding to the caspase-3 cleaved protein (PKCδCat-HA). 20 hours after transfection the cells were lysed and PKCδCat-HA was immunoprecipitated using an anti-HA antibody. (A) PKC assays were carried out on the immunoprecipitates from mock (open bars) and PKCδCat-HA (shaded bars) expressing cells using Ser25 peptide as substrate with [^32P]γ-ATP in the presence or absence of 100 μM DMS (delivered in 0.1% ethanol) or 10 μM of GF109203X (GFX), the PKC inhibitor. The values represent means±S.E. of triplicate determinations. (B) PKCδCat-HA immunoprecipitates were incubated with recombinant 14-3-3ζ and [^32P]γ-ATP in the presence or absence of DMS or GF109203X (GFX). Phosphorylated 14-3-3 was detected by autoradiography after separation of SDS-PAGE (upper panel). The gel was also coomassie stained to show equal loading of 14-3-3 protein (lower panel).
Equal amounts of PKCδCat-HA immunoprecipitate were used to assay for PKC kinase activity, or to phosphorylate recombinant 14-3-3. […] Following incubation, reactions were separated on 12.5% SDS-PAGE, coomassie stained and 14-3-3 phosphorylation analysed by autoradiography.

14-3-3ζ [3] = biological target: T1, 14-3-3ζ; assay: Gel filtration of 14-3-3ζ with DMS and [3H]-sphingosine; assay type: binding; details: co-elution in fractions 3-14; 25 μM DMS with trace [3H]-sphingosine
Procedure: FIG. 4 is a graphical representation depicting that sphingosine binds to 14-3-3 in vitro. 10 μg of recombinant 14-3-3 was incubated for 15 minutes at room temperature in 50 μl of buffer either in the absence (FIG. A, thick line) or presence of [^3H]-sphingosine (0.5 μCi) with 25 μM DMS (thin line). After incubation, the mixtures were separated by gel filtration as described under “examples”. (A) Absorbance at 280 nm was monitored continuously to identify the elution position of 14-3-3 protein. An aliquot of each eluted fraction was analysed for (B) sphingosine-binding to 14-3-3 by measuring [^3H]-sphingosine radioactivity as determined by scintillation counting; and (C) 14-3-3 phosphorylatability by incubation with 0.2 Units of PKA catalytic subunit and [^32P]γ-ATP. Phosphorylated 14-3-3 was detected by autoradiography. The chromatography and assays were repeated twice and similar results obtained.
Recombinant 14-3-3ζ (10 μg) was pre-incubated with 25 μM […] delivered in 0.1% v/v ethanol and [^3H]-sphingosine, (0.5 μCi) and then chromatographed on a SMART system with a Superdex 200PC 3.2/30 column (Amersham Biosciences, Australia). The system was operated at 40 μl/min using 20 mM Tris-HCl pH 7.5, 150 mM NaCl, 0.1 mM DTT, 10 mM β-mercaptoethanol as running buffer. Fractions (40 μl) were collected for 60 minutes after sample injection. […]

[4] = published, Contreras et al. 2006; cited from earlier work
14-3-3ζ S58A mutant = biological target: T2, 14-3-3ζ S58A mutant (Homo sapiens, UniProt P63104, S58A); assay: Phosphorylation of S58A mutant 14-3-3ζ by PKA catalytic subunit; assay type: biochemical; details: 50 μM sphingosine; alanine substitution of Ser58
T2 construct: made in house
T2 sequence (P63104 1-245 S58A): T1 sequence (P63104 1-245) with S58A
Procedure: FIG. 1 is an image depicting that sphingosine is required for 14-3-3ζ phosphorylation on Ser58 by the catalytic subunit of PKA. 14-3-3ζ (wild-type or S58A mutant) was incubated with the catalytic subunit of PKA in the presence (+) or absence (−) of 50 μM sphingosine (A) or DMS (B) delivered in 0.1% ethanol. Phosphorylated 14-3-3ζ was detected by autoradiography. Gels were coomassie stained to show equal loading of 14-3-3 substrate.
as §1

For `CCCCCCCCCCCCC/C=C/[C@@H](O)[C@@H](N)CO` [sphingosine, D-erythro-sphingosine], the “phosphorylation of 14-3-3 isoforms by PKA catalytic subunit” value (14-3-3 isoforms) was “all isoforms tested with the exception of 14-3-36 were phosphorylatable”, the “phosphorylation of 14-3-3ζ on Ser58 by PKA catalytic subunit” value (14-3-3ζ [1]) was “not phosphorylated by PKA catalytic subunit unless sphingosine was present; also recorded: allowed phosphorylation” and the “phosphorylation of 14-3-3 by PKCδCat” value (14-3-3ζ [2]) was “no phosphorylation is observed with PKCδCat unless sphingosine is present”. For the same compound, the “binding of [3H]-sphingosine to 14-3-3” value (14-3-3ζ [3]) was “directly bound to 14-3-3”, the critical micelle concentration [4] was 18 µM and the “sphingosine-dependent phosphorylation of S58A 14-3-3ζ” value (14-3-3ζ S58A mutant) was “abolished”.
